In paper PMC10816934, “Targeting the Melanocortin 1 Receptor in Melanoma: Biological Activity of α-MSH–Peptide Conjugates” (International Journal of Molecular Sciences, 2024):

Legend:
[1] = test system: B16 murine melanoma cell line; test: In vitro antiproliferative activity, MTT assay; type: cell-based, mouse; conditions: for IC50: MTT assay, 0.8–100 μM in serum-free medium 24 h, then 48 h culture, mean ± SD of two or three independent experiments; for Relative Potency: ratio of IC50 values of free Dau and conjugate
Text: (§1) The following cell cultures were used for the biological evaluation of the synthetic melanoma-specific peptide–drug (Dau–α-MSH) conjugates: A2058 (human skin melanoma, CVCL_1059), M24 (human metastatic skin melanoma, CVCL_D032), OCM-1 (human ocular choroidal melanoma-1, CVCL_6934), OCM-3 (human ocular choroidal melanoma-3, CVCL_6937), WM983A (human metastatic skin melanoma, CVCL_6808), WM983B (human metastatic skin melanoma CVCL_6809), SK-MEL-202 (human skin melanoma, ATCC HTB-68) and B16 (mouse melanoma, ATCC: CRL-6475). Cells were maintained in RPMI-1640 (Lonza, Basel, Switzerland), supplied with 10% FBS (fetal bovine serum; BioSera, Nuaille, France), L-glutamine, and 1% penicillin–streptomycin (from 10 000 units penicillin and 10 mg streptomycin/mL, Gibco, Dublin, Ireland) at 37 °C in a 5% CO2 atmosphere. No mycoplasma contamination was detected in the cell cultures.
(§2) The in vitro cytostatic effect of Dau–α-MSH conjugates was determined by two different assays. The full-length Dau–α-MSH conjugates were investigated by MTT assay using human and murine melanoma cell cultures. For determination of the cytostatic effect of these conjugates, the cells were treated with the compounds at 0.8–100 μM concentration range dissolved in the corresponding serum-free media for 24 h. After incubation, the treating solutions were removed, the cells were washed two times with serum-free medium and cultured for 48 h in the appropriate serum-containing cell culture medium. On the fourth day, the MTT assay was carried out to determine the IC50 values of the compounds. IC50 is the concentration that inhibits cell proliferation by 50%. Nonlinear regression analysis was performed with Prism 6 software (GraphPad, La Jolla, CA, USA) to generate sigmoidal dose–response curves, from which the 50% inhibitory concentration (IC50) values of the compounds were calculated and presented as micromolar (µM) units. The experiments were done in triplicate, and each experiment was repeated twice.

[2] = test system: subcutaneous B16 murine melanoma in C57BL/6 male mice; test: In vivo antitumor effect, subcutaneous B16 melanoma allograft; conditions: for Increase of animal bodyweight at the end of the experiment in comparison to the start: conjugates 10 mg Dau content/kg i.p. days 9, 13, 15, 17, free Dau 1 mg/kg days 9, 17; for Tumor growth inhibition based on tumor weight, in comparison to the control group / Animal body weight (Table S1) / Tumor weigh in % (Table S1) / Tumor volume in % (Table S1) / Tumor volume in mm3 (Table S1): conjugates 10 mg Dau content/kg; for Tumor growth inhibition based on tumor weight, in comparison to the control group / Tumor volume in percentage (start set as 100%) increased in comparison to the control group: free Dau 1 mg/kg i.p.; for Animal body weight (Table S1): change at end compared to start; for Animal body weight (Table S1) / Tumor weigh in % (Table S1): minus = decrease; for Tumor weigh in % (Table S1) / Tumor volume in % (Table S1) / Tumor volume in mm3 (Table S1): change compared to control group; for Tumor volume in % (Table S1) / Tumor volume in mm3 (Table S1): minus = inhibition; for Tumor volume in percentage (start set as 100%) increased in comparison to the control group: end of experiment, Conj1 10 mg Dau content/kg
Experimental: In the first experiment, B16 murine melanoma cells were subcutaneously (s.c.) injected into side of the latero-abdominal region of 35 C57BL/6 male mice (20–28 g), which murine strain is syngeneic for the B16 melanoma tumor cell line [59, 60], 6.5 ×·10^5 cells in a volume of 200 µL M199 medium was inoculated per animal. Mice were randomized in a stratified procedure considering two main factors. The primary factor was to obtain groups with the most equal tumor sizes, the secondary factor was to have groups in which the weight of mice are the most equal. The treatment started 9 days after cell inoculation when average tumor volume was 30 mm^3. Compounds were dissolved in saline solution (Teva, Debrecen, Hungary), and administered via i.p. injection in a volume of 0.1 mL per 10 g of bodyweight. […] Animal weight and tumor volumes were measured initially when the treatment started and at periodic intervals following treatment. A digital caliper was used to measure the longest (a) and the shortest diameter (b) of a given tumor. The tumor volume was calculated using the formula V = ab^2 × π/6, whereby a and b represent the measured parameters (length and width). Termination of the experiment was 20 days after cell inoculation, i.e., 12 days after treatment started, since the average volume of the tumors in the control group reached over 1800 mm^3. The mice from all groups were sacrificed by cervical dislocation after which their tumors were harvested and weighed for antitumor effect assessment. Antitumor effect of treatments was evaluated measuring the tumor volume and calculating the percentage of how much the tumor volume grew in comparison to the starting tumor volume which was set arbitrarily for all tumors as 100% at the start of treatment.

[3] = test system: A2058 human melanoma cell line; test: In vitro antiproliferative activity, MTT assay; type: cell-based; conditions: for IC50: MTT assay, 0.8–100 μM in serum-free medium 24 h, then 48 h culture, mean ± SD of two or three independent experiments; for Relative Potency: ratio of IC50 values of free Dau and conjugate
Text: as §1, §2

[4] = test system: M24 human melanoma cell line; test: In vitro antiproliferative activity, MTT assay; type: cell-based; conditions: for IC50: MTT assay, 0.8–100 μM in serum-free medium 24 h, then 48 h culture, mean ± SD of two or three independent experiments; for Relative Potency: ratio of IC50 values of free Dau and conjugate
Text: as §1, §2

[5] = test system: WM983B human melanoma cell line; test: In vitro antiproliferative activity, MTT assay; type: cell-based; conditions: for IC50: MTT assay, 0.8–100 μM in serum-free medium 24 h, then 48 h culture, mean ± SD of two or three independent experiments; for Relative Potency: ratio of IC50 values of free Dau and conjugate
Text: as §1, §2

[6] = test system: OCM-1 human uveal melanoma tumor in male NOD-SCID mice; test: In vivo tumor growth inhibition, OCM-1 xenograft; set-up: species or system mouse
Experimental: In the next experiment, the murine xenograft melanoma model establishment studies were performed using 8–12-week-old male NOD-SCID mice. For selection of the most suitable tumor model, three cell lines were then inoculated subcutaneously, OCM-1, SK-MEL-202, and WM983A. Cells were injected in a 0.1 mL RPMI-1640 basic medium in a concentration of 1.5·× 10^6 cells/mL, and the tumor growth and weight of mice were monitored 2–3 times per week. Subsequently, the antitumor effects of the Dau–α-MSH conjugates were determined in a mouse xenograft melanoma model selected as described above. Once the tumor volume reached 60 mm^3, mice were randomized and assigned to different groups for each treatment: 0.9% saline as a control, free daunomycin, Conj2 and Conj4. Treatments were injected intraperitoneally every fifth day, three times in total (daunomycin dosage of 5 mg/kg in case of Conj2, 10 mg/kg for Conj4, respectively, which was determined based on the toxicity tests, and 1 mg/kg were used for free drug–MTD). The weight and tumor size of mice were monitored during the whole experiment. On Day 33, mice were euthanized, and the primary tumor, heart, lung, liver, and spleen were harvested and stored in 4% formalin (Molar Chemicals, Halásztelek, Hungary). Liver weight was measured for the calculation of the toxicity of conjugates and daunomycin.

[7] = test system: OCM-3 cells; test: In vitro cytostatic effect, PrestoBlue assay; type: cell-based, human; conditions: Homo sapiens; OCM-3; PrestoBlue; 0.003–200 μM in serum-free medium 72 h; mean ± SEM of three independent experiments
Text: as §1
(§3) The in vitro cytostatic effect of the Dau–α-MSH conjugate with optimized sequence (Conj4) was investigated and compared with Conj2 by PrestoBlue assay using human melanoma cell cultures with different origins. For determination of the cytostatic effect of the conjugates, the cells were treated with the compounds at 0.003–200 μM concentration range dissolved in the corresponding serum-free medium for 72 h. After the treatment, the PrestoBlue assay (purchased from Invitrogen (Waltham, MA, USA) was carried out to determine the IC50 values of the compounds. Based on the IC50 values, we also determined the targeting index (TI) of the conjugates using the following equation [58]: TI=IC50neg/IC50posconjugate/IC50neg/IC50posfree drug

[8] = test system: WM983B cells; test: In vitro cytostatic effect, PrestoBlue assay; type: cell-based, human; conditions: Homo sapiens; WM983B; PrestoBlue; 0.003–200 μM in serum-free medium 72 h; mean ± SEM of three independent experiments
Text: as §1, §3

[9] = test system: WM983A cells; test: In vitro cytostatic effect, PrestoBlue assay; type: cell-based, human; conditions: Homo sapiens; WM983A; PrestoBlue; 0.003–200 μM in serum-free medium 72 h; mean ± SEM of three independent experiments
Text: as §1, §3

[10] = test system: OCM-1 cells; test: In vitro cytostatic effect, PrestoBlue assay; type: cell-based, human; conditions: Homo sapiens; OCM-1; PrestoBlue; 0.003–200 μM in serum-free medium 72 h; mean ± SEM of three independent experiments
Text: as §1, §3

[11] = free drug 1 mg/kg i.p., group terminated on day 28

CCCC[C@H](NC(=O)[C@H](CO)NC(=O)[C@H](Cc1ccc(O)cc1)NC(=O)[C@H](CO)NC(=O)CON=C(C)[C@]1(O)Cc2c(O)c3c(c(O)c2[C@@H](O[C@H]2C[C@H](N)[C@H](O)[C@H](C)O2)C1)C(=O)c1c(OC)cccc1C3=O)C(=O)N[C@@H](CCC(=O)O)C(=O)N[C@@H](Cc1c[nH]cn1)C(=O)N[C@@H](Cc1ccccc1)C(=O)N[C@@H](CCCNC(=N)N)C(=O)N[C@@H](Cc1c[nH]c2ccccc12)C(=O)NCC(=O)N[C@@H](CCCCN)C(=O)N1CCC[C@H]1C(=O)N[C@H](C(N)=O)C(C)C [Conj1, Dau=Aoa-SYSNleEHFRWGKPV-NH2]
IC50 [1]: 2.9 ± 0.6 µM | Relative Potency [1]: 0.0090 | Increase of animal bodyweight at the end of the experiment in comparison to the start ([2]; B16-bearing C57BL/6 mice): 12.9% | Tumor growth inhibition based on tumor weight, in comparison to the control group ([2]; after termination (day 20)): 2.4% | Animal body weight (Table S1) ([2]; free Dau 1 mg/kg): +12.9% | Tumor weigh in % (Table S1) ([2]; free Dau 1 mg/kg): -2.4% | Tumor volume in % (Table S1) ([2]; free Dau 1 mg/kg): +9.7% | Tumor volume in mm3 (Table S1) ([2]; free Dau 1 mg/kg): -23.8% | Tumor volume in percentage (start set as 100%) increased in comparison to the control group [2]: 9.7% | IC50 [3]: 9.8 ± 5.4 µM | Relative Potency [3]: 0.0041 | IC50 [4]: 12.8 ± 1.6 µM | Relative Potency [4]: 0.0093 | IC50 [5]: 9.9 ± 1.5 µM | Relative Potency [5]: 0.0050

CCCC[C@H](NC(=O)[C@H](CO)NC(=O)[C@H](Cc1ccc(O)cc1)NC(=O)[C@H](CO)NC(=O)CON=C(C)[C@]1(O)Cc2c(O)c3c(c(O)c2[C@@H](O[C@H]2C[C@H](N)[C@H](O)[C@H](C)O2)C1)C(=O)c1c(OC)cccc1C3=O)C(=O)N[C@@H](CCC(=O)O)C(=O)N[C@@H](Cc1c[nH]cn1)C(=O)N[C@@H](Cc1ccccc1)C(=O)N[C@@H](CCCNC(=N)N)C(=O)N[C@@H](Cc1c[nH]c2ccccc12)C(=O)NCC(=O)N[C@@H](CCCCNC(=O)CON=C(C)[C@]1(O)Cc2c(O)c3c(c(O)c2[C@@H](O[C@H]2C[C@H](N)[C@H](O)[C@H](C)O2)C1)C(=O)c1c(OC)cccc1C3=O)C(=O)N1CCC[C@H]1C(=O)N[C@H](C(N)=O)C(C)C [Conj3, Dau=Aoa-SYSNleEHFRWGK(Dau=Aoa)PV-NH2]
IC50 [1]: 2 ± 0.7 µM | Relative Potency [1]: 0.0130 | Increase of animal bodyweight at the end of the experiment in comparison to the start ([2]; B16-bearing C57BL/6 mice): 18.2% | Tumor weight increased in comparison to the control ([2]; after termination (day 20), 10 mg Dau content/kg i.p.): 9.2% | Animal body weight (Table S1) ([2]; free Dau 1 mg/kg): +18.2% | Tumor weigh in % (Table S1) ([2]; free Dau 1 mg/kg): +9.2% | Tumor volume in % (Table S1) ([2]; free Dau 1 mg/kg): -14.7% | Tumor volume in mm3 (Table S1) ([2]; free Dau 1 mg/kg): +12.3% | Average tumor volume (mm^3) higher compared to the control group ([2]; end of experiment (day 20), 10 mg Dau content/kg i.p.): 12.3% | IC50 [3]: 3 ± 0.8 µM | Relative Potency [3]: 0.0133 | IC50 [4]: 11 ± 0.8 µM | Relative Potency [4]: 0.0108 | IC50 [5]: 3.6 ± 0.2 µM | Relative Potency [5]: 0.0138

COc1cccc2c1C(=O)c1c(O)c3c(c(O)c1C2=O)C[C@@](O)(C(C)=O)C[C@@H]3O[C@H]1C[C@H](N)[C@H](O)[C@H](C)O1 [Dau, daunomycin, reference compound]
IC50 ([1]; Mus musculus): 0.026 ± 0.008 µM | Increase of animal bodyweight at the end of the experiment in comparison to the start ([2]; B16-bearing C57BL/6 mice): 7.6% | Tumor growth inhibition based on tumor weight, in comparison to the control group ([2]; after termination (day 20)): 17% | Animal body weight (Table S1) ([2]; free Dau 1 mg/kg): +7.6% | Tumor weigh in % (Table S1) ([2]; free Dau 1 mg/kg): -17.0% | Tumor volume in % (Table S1) ([2]; free Dau 1 mg/kg): +58.8% | Tumor volume in mm3 (Table S1) ([2]; free Dau 1 mg/kg): -4.9% | Tumor growth inhibition based on tumor volume in mm^3, compared to control ([2]; end of experiment (day 20), conjugates 10 mg Dau content/kg i.p., free Dau 1 mg/kg): 4.9% | Tumor volume in percentage (start set as 100%) increased in comparison to the control group [2]: 58.8% | Animals died during the experiment ([2]; seven animals per group, B16-bearing C57BL/6 mice): 3 animals | IC50 ([3]; Homo sapiens): 0.04 ± 0.007 µM | IC50 ([4]; Homo sapiens): 0.119 ± 0.025 µM | IC50 ([5]; Homo sapiens): 0.05 ± 0.023 µM | Liver weight compared to the control ([6]; OCM-1-bearing NOD-SCID mice, Conj2 5 mg/kg, Conj4 10 mg/kg, daunomycin 1 mg/kg i.p., no significant toxicity): 89.79% | Normalized liver weight, value line 1 ([6]; Table S2, single animal, line 1): 4.05% | Normalized liver weight, value line 2 ([6]; Table S2, single animal, line 2): 4.31% | Normalized liver weight, value line 4 ([6]; Table S2, single animal, line 4): 4.81% | Normalized liver weight, value line 5 ([6]; Table S2, single animal, line 5): 4.07% | Normalized liver weight, value line 6 ([6]; Table S2, single animal, line 6): 4.07% | Normalized liver weight, value line 7 ([6]; Table S2, single animal, line 7): 5.29% | Normalized liver weight, line printed as "relative to ctr" ([6]; Table S2, value line 9): 5.00% | Toxicity (general condition of mice) [6, 11]: high toxicity | Tumor inhibition compared to the controls [6, 11]: lack of tumor inhibition | IC50 [7]: 0.56 ± 0.05 µM | IC50 [8]: 0.33 ± 0.05 µM | IC50 [9]: 0.19 ± 0.06 µM | IC50 [10]: 0.73 ± 0.06 µM
